Laboratory results: ChEMBL document CHEMBL1137394, “Configurationally restricted bismacrocyclic CXCR4 receptor antagonists” (J Med Chem, 2006)
Calls of active or inactive are those of the source. No cut-off for these calls is given here.

What was measured:
[1] = target: C-X-C chemokine receptor type 4 (Homo sapiens) (UniProt P61073); assay: Binding affinity to CXCR4 by flow cell cytometry; format: functional
[2] = tested on: Human immunodeficiency virus 1; assay: Antiviral activity against HIV1 3B assessed as reduction in cytopathic effect in MT4 cells; format: functional, organism-based; conditions: Human immunodeficiency virus 1, 3B
[3] = tested on: Human immunodeficiency virus 2; assay: Antiviral activity against HIV2 ROD assessed as reduction in cytopathic effect in MT4 cells; format: functional, organism-based; conditions: Human immunodeficiency virus 2, ROD
[4] = tested on: MT4; assay: Cytotoxicity against human MT4 cells; format: functional
[5] = tested on: MT4; assay: Selectivity index, EC50 against HIV1 3B/CC50 against MT4 cells; format: functional, Human immunodeficiency virus 1
[6] = tested on: MT4; assay: Selectivity index, EC50 against HIV2 ROD/CC50 against MT4 cells; format: functional, Human immunodeficiency virus 2

C-X-C chemokine receptor type 4 (Homo sapiens), sequence (P61073 whole entry): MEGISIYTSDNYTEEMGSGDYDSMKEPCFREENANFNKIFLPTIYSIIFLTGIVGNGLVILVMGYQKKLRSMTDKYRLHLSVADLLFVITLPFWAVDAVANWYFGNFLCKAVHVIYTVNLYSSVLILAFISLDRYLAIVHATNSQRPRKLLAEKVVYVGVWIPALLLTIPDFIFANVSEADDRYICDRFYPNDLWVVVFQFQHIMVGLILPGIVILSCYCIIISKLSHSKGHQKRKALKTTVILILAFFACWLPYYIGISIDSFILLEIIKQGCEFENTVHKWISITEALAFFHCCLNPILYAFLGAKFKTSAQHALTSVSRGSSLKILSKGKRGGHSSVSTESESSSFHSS

**Q.** For c1cc(CN2CCCN3CCN(CCCNCC2)CC3)ccc1CN1CCCN2CCN(CCCNCC1)CC2, which Activity [1] is on record?
**A.** Active

**Q.** What about the EC50 [2] of the same compound?
**A.** 6.98 µM

**Q.** And the EC50 [3]?
**A.** 23.2 µM

**Q.** And the CC50 [4]?
**A.** > 225 µM

**Q.** What about the Selectivity index [5] of the same compound?
**A.** >32

**Q.** And the Selectivity index [6]?
**A.** >10
